# Reference: EP2157088A1, “INDICYANINE DYES AND THE DERIVATIVES THEREOF FOR ANALYSING BIOLOGICAL MICROMOLECULES” (UCHREZHDENIE ROSSIISKOI AKADEMII NAUK INSTITUT …, priority 2007, dated 2008)
# Assays:
# [1] = Quantum efficiency of fluorescence, measured versus a reference dye; type: physicochemical
# Description: For all indodicarbocyanine dyes (I) (A1) - (A30) and (B1) - (B7) of the invention, there are determined the quantum efficiency of fluorescence in methanol and in aqueous phosphate buffered saline (Table 1, Fig. 3). The measurements are performed versus dyes of formula (I) (R1= -CH3, R2= R6= -SO3^-; R3= -(CH2)5COOH, R4= -C2H5, R5= -H) whose quantum efficiency of fluorescence in PBS is 0.27 (Mader O., K. Reider, H.-J. Egelhaaaf, R, Fischer, R. Brock, Structure Properties of Pentamethine Indocyanine Dyes: Identification of New Dyes for Life Science Applications. Bioconjugate Chem, 2004, vol. 15, pp. 70-78). In methanol, dyes (A10, A22, A25, A29, A30) have the upper-range of quantum efficiency of fluorescence (Φ ∼ 0.3), but in PBS, dyes (A10, A22, A25, A29, A30) have the maximal Φ -value.
# [2] = type: physicochemical
# Text: Subject to substituent at the heterocyclic moiety, dyes of formulae (A) and (B) proposed are distinguished by a spectral range of excitation and fluorescence, by the total electrical charge, and water solubility (Table 1).
# [3] = Relative efficiency of fluorescence / absolute sensitivity of label, normalized to dye A30 in PBS; type: physicochemical; details: for Sensitivity of record 635/ 670: excitation 635 nm, record 670 nm; for Sensitivity of record 655/ 690: excitation 655 nm, record 690 nm; for Sensitivity of record max/ max: excitation and record in absorption and fluorescence maxima, ε*Φ normalized to A30 in PBS
# Text: The data obtained were as follows: • on excitation and record in absorption and fluorescence maxima, the relative efficiency of fluorescence exceeds 0.80 for dyes (A10), (A22), (A23), (A25), and (A30) in methanol and for dyes (A22), (A25), and (A30) in PBS (Table 1, Fig. 4), whereas for dyes of formula (I) (R1 = -CH3, R2= R6= -SO3^-; R3= -(CH2)5COOH, R4= -C2H5; R5= -H) the values are 0.69 in methanol and 0.67 in PBS; • on excitation at wavelength 655 nm and record at 690 nm, the relative efficiency of fluorescence exceeds 0.25 for dyes (A25) and (A30) in methanol and is higher than 0.18 for dyes (A24) and (A30) in PBS (Table 1, Fig. 5), whereas for dyes of formula (I) (R1 = -CH3, R2 = R6= -SO3^-; R3= -(CH2)5COOH, R4= -C2H5; R5= -H) the values are 0.18 in methanol and 0.11 in PBS; • on excitation at wavelength 635 nm and record at 670 nm, the relative efficiency of fluorescence exceeds 0.50 for dyes (A1), (A11), (A23) in methanol and is higher than 0.45 for dyes (A22), (A25), and (A30) in PBS (Table 1, Fig. 6), whereas for dyes of formula (I) (R1= -CH3, R2= R6= -SO3^-; R3= -(CH2)5COOH, R4= -C2H5; R5= -H) the values are 0.44 in methanol and 0.38 in PBS.
# Term sensitivity of fluorescent analysis is defined by the absolute sensitivity of label that may be represented as the product of molar extinction coefficient by quantum efficiency of fluorescence (ε*Φ). Thus, there are determined the absolute sensitivity of indodicarbocyanines (A1-A30, B1-B7) in appropriate absorption and fluorescence maxima in methanol and in aqueous phosphate buffered saline. The values are normalized to the maximal value obtained for dye (A30) in PBS (Table 1). In methanol, dyes (A10, A22, A23, A25, A30) have the upper-range of absolute sensitivity, but in PBS, dyes (A10, A22, A25, A29, A30) have the maximal values of sensitivity (Fig. 4).
# To determine the most appropriate dyes for instrument setting, there are measured the relative efficiency of fluorescence of dyes at wavelength of excitation and record of the instrument (655 nm. / 690 nm). The maximal values appear to be specific to dyes (A25) and (A30) in methanol, and to dyes (A19, A22, A25, A29, A30) in PBS (Table 1, Fig. 5).
# There are also measured the relative efficiency of fluorescence at wavelength of excitation and record of the instrument (635 nm / 670 nm). The maximal values appear to be specific to dyes (A1, A10, A11, A23) in methanol, and to dyes (A10, A22, A25, A29, A30) in PBS (Table 1, Fig. 6).
# [4] = Molar extinction coefficient in methanol and PBS; type: physicochemical; set-up: ε·10^-5: unit not given here
# Description: For all indodicarbocyanine dyes (I) (A1) - (A30) and (B1) - (B7) of the invention, there are determined the molar extinction coefficients in methanol and in aqueous phosphate buffered saline (PBS) (10 mM potassium phosphate buffer, sodium chloride concentration is 0.9%, pH 7.4). In methanol, indodicarbocyanine (A1, A8, A10-A12, A17, A23) has the upper-range of molar extinction coefficient (ε >[…]). In aqueous phosphate buffered saline (PBS), dyes (A10, A23, A30) have the maximal ε-value (Fig. 2).
# [5] = Absorption and fluorescence maxima of the dyes; type: physicochemical
# Text: An insertion of methyl group at 5- and 7-positions of indolenyne cycle produces a bathochromic shift in the absorption and fluorescent spectra. As to the rest sulfur containing dyes, the spectral characteristics thereof appear to be in the same range (between about λmax 648 nm and λem 669 nm) (Fig. 1),
# [6] = PBS (10 mM potassium phosphate buffer, 0.9% sodium chloride, pH 7.4)
Φ (quantum efficiency of fluorescence) ([1]; MeOH),Sensitivity of record 635/ 670 ([3]; MeOH),Sensitivity of record 655/ 690 ([3]; MeOH),Sensitivity of record max/ max ([3]; MeOH),Sensitivity of record 635/ 670 ([3]; PBS),Sensitivity of record 655/ 690 ([3]; PBS),Sensitivity of record max/ max ([3]; PBS),Φ (quantum efficiency of fluorescence) ([1]; PBS),ε·10^-5 ([4]; MeOH),"ε·10^-5 [4, 6]",λmax^abs ([5]; MeOH) [nm],λmax^em ([5]; MeOH) [nm],λmax^abs ([5]; PBS) [nm],λmax^em ([5]; PBS) [nm],molar extinction coefficient (ε) ([4]; in methanol) [M⁻¹ cm⁻¹],Molecule,water solubility [2]
~0.3,,,,,,,,,,,,,,,"5,5'-disulfo-N,N'-di(4-sulfobutyl)-3-(4-carboxybutyl)-3,3',3'-trimethylindodicarbocyanine, trisodium salt [A30]",very good water solubility
0.16,0.212,0.229,0.391,0.136,0.096,0.238,0.09,2.05±0.02,1.96±0.02,654,674,653,670,,"CCN1C(=CC=CC=CC2=[N+](CCCCS(=O)(=O)[O-])c3ccc(C)cc3C2(C)CCCCC(=O)O)C(C)(C)c2cc(C)ccc21 (stereo not shown) [A5, 3-(4-Carboxybutyl)-3,3',3',5,5'-pentamethyl-N-(4-sulfobutyl)-N'-ethylindodicarbocyanine]",
0.11,0.151,0.198,0.292,0.089,0.085,0.170,0.07,2.13±0.03,1.82±0.03,654,672,656,676,,"CC[N+]1=C(/C=C/C=C/C=C2/N(CCCCS(=O)(=O)[O-])c3ccc(C)cc3C2(C)CCCCC(=O)O)C(C)(C)c2cc(C)cc(C)c21 (stereo not shown) [A6, 3,3',3',5,5'.7'-hexamethyl-3-(4-carboxybutyl)-N-(4-sulfobutyl)-N'-ethylindodicarbocyanine]",
0.23,0.359,0.102,0.514,0.207,0.049,0.353,0.14,1.78±0.02,1.80±0.03,647,660,646,663,,"CCN1/C(=C/C=C/C=C/C2=[N+](CC)c3ccc(S(=O)(=O)[O-])cc3C2(C)C)C(C)(CCCCC(=O)O)c2ccccc21 (stereo not shown) [A7, N,N'-diethyl-3-(4-carboxybutyl)-5'-sulfo-3,3',3'-trimethylindodicarbocyanine]",
0.26,0.493,0.134,0.730,0.262,0.054,0.433,0.15,2.20±0.02,2.13±0.02,647,662,646,660,> 220000,"CC[N+]1=C(C=CC=CC=C2N(CCCCS(=O)(=O)[O-])c3ccccc3C2(C)C)C(C)(CCCCC(=O)O)c2ccccc21 (stereo not shown) [A8, 3-(4-carboxybutyl)-N'-(4-sulfobutyl)-3,3',3'-trimethyl-N-ethylindodicarbocyanine]",
0.23,0.424,0.124,0.627,0.229,0.052,0.385,0.15,2.07±0.03,1.91±0.02,648,663,646,659,,"CCN1/C(=C/C=C/C=C/C2=[N+](CC)c3ccccc3C2(C)C)C(C)(CCCCC(=O)O)c2cc(S(=O)(=O)[O-])ccc21 (stereo not shown) [A9, N,N'-diethyl-3-(4-carboxybutyl)-5-sulfo-3,3',3'-trimethylindodicarbocyanine]",
,,,,,,,,,,,,,,,"CC1(C)C(=CC=CC=CC2=[N+](CCCCS(=O)(=O)[O-])c3ccc(CCC(=O)O)cc3C2(C)C)N(CCCCS(=O)(=O)[O-])c2ccc(S(=O)(=O)[O-])cc21.[Na+].[Na+] [B7, N,N'-disulfobutyl-5-carboxyethyl-5'-sulfo-3,3,3',3'-tetramethylindodicarbocyanine, disodium salt]",very good water solubility

Molecule,Φ (quantum efficiency of fluorescence) ([1]; MeOH),Sensitivity of record 635/ 670 ([3]; MeOH),Sensitivity of record 655/ 690 ([3]; MeOH),Sensitivity of record max/ max ([3]; MeOH),Sensitivity of record 635/ 670 ([3]; PBS),Sensitivity of record 655/ 690 ([3]; PBS),Sensitivity of record max/ max ([3]; PBS),Φ (quantum efficiency of fluorescence) ([1]; PBS),ε·10^-5 ([4]; MeOH),"ε·10^-5 [4, 6]",λmax^abs ([5]; MeOH) [nm],λmax^em ([5]; MeOH) [nm],λmax^abs ([5]; PBS) [nm],λmax^em ([5]; PBS) [nm],molar extinction coefficient (ε) ([4]; in methanol) [M⁻¹ cm⁻¹],water solubility [2]
"CCN1C(=CC=CC=CC2=[N+](CCCCS(=O)(=O)[O-])c3ccc(C)cc3C2(C)CCCCC(=O)O)C(C)(C)c2ccccc21 (stereo not shown) [A4, 3-(4-Carboxybutyl)-N-(4-sulfobutyl)-3,3',3',5-tetramethyl-N'-ethylin:dodicarbpcyanine]",0.14,0.243,0.143,0.381,0.162,0.054,0.255,0.10,2.14±0.03,2.1 ± 0.03,651,668,649,665,,
